According to patent US9522888B2, “Substituted bicyclic compounds” (BRISTOL-MYERS SQUIBB COMPANY, priority 2014, dated 2016):

Legend:
[1] = biological target: human S1P1 (Homo sapiens (Human), UniProt P21453); experiment: S1P1 binding assay (33P-S1P radioligand competition, CHO cell membranes); conditions: phosphate examples; read-out: S1P1 Binding
Method in brief: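 Radioligand is 33P-S1P, competing for membranes from human S1P1-expressing CHO cells. Membranes resuspended in 50 mM HEPES pH 7.5, 100 mM NaCl, 1 mM MgCl2, 2 mM EDTA.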

[2] = biological target: S1P1 (membranes prepared from S1P1/CHO cells) (Homo sapiens (Human), UniProt P21453); experiment: Receptor [35S] GTPγS binding assay (S1P1 GTPγS); assay type: biochemical; conditions: phosphate examples; read-out: S1P1 GTPγS
Sequence of S1P1 (membranes prepared from S1P1/CHO cells) (P21453 whole entry): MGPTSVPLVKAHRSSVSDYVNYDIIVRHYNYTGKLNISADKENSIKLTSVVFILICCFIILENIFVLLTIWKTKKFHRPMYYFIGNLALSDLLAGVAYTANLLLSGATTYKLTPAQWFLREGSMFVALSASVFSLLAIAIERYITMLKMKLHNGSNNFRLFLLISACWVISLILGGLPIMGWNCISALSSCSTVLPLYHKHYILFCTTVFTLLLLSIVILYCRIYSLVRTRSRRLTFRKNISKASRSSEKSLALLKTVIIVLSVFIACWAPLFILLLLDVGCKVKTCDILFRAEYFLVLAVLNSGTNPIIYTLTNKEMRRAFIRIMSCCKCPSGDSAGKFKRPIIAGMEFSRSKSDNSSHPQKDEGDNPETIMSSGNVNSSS
Method in brief: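 Membranes from S1P1-expressing CHO cells (3 μg protein/well) incubated with compound (11-point, 3-fold dilution) and 0.2 nM final [35S]GTPγS, 45 min at room temperature. Assay buffer: 20 mM HEPES pH 7.5, 10 mM MgCl2, 150 mM NaCl, 10 μM GDP, 0.1% fatty-acid-free BSA, 10 μg/ml saponin. Filter-bound radioactivity counted by scintillation; EC50 derived.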

[3] = biological target: S1P3 (membranes prepared from EDG3-Gal5-bla HEK293T cells) (Homo sapiens (Human), UniProt Q99500); experiment: Receptor [35S] GTPγS binding assay (S1P3 GTPγS); assay type: biochemical; conditions: phosphate examples; read-out: S1P3 GTPγS
Sequence of S1P3 (membranes prepared from EDG3-Gal5-bla HEK293T cells) (Q99500 whole entry): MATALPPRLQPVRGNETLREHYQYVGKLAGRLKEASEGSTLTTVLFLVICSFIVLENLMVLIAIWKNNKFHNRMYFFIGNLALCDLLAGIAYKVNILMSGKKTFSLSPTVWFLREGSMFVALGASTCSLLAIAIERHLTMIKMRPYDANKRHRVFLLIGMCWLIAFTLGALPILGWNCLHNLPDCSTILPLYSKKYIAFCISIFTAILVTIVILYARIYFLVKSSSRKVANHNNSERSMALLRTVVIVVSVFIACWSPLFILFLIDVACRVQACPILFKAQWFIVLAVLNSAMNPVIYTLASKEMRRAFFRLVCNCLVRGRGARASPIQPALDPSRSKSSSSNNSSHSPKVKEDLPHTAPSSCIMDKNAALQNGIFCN
Method in brief: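 Membranes (3 μg protein/well) from S1P1/CHO cells or EDG3-Gal5-bla HEK293T cells (S1P3) were incubated 45 min at room temperature with 0.2 nM final [35S]GTPγS in HEPES pH 7.5 buffer with 10 μM GDP, MgCl2 and saponin. Bound label counted after filtration; EC50 from 11-point, 3-fold dilutions.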

[4] = biological target: hS1P1/CHO cells (Homo sapiens (Human), UniProt P21453); experiment: hS1P1 ERK phosphorylation (S1P1 pERK); assay type: cell-based; conditions: phosphate examples
Sequence of hS1P1/CHO cells (P21453 whole entry): as the sequence (P21453 whole entry) above
Method in brief: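 CHO cells expressing human S1P1, serum-starved 2 h, exposed to compound in HBSS/20 mM HEPES for 7 min at 37° C. Lysates assayed for phospho-ERK by SureFire kit; response given as % activation relative to 10 μM S1P.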

Sequence of human S1P1 (P21453 whole entry): as above

Row | IC50 [1] | EC50 [2] | EC50 [3] | EC50 [4] | SMILES
1 | < 10 nM | 10 to 100 nM | > 625 nM | 10 to 100 nM | CCCC/C=C/[C@@H]1CCc2cc([C@H]3CC[C@](N)(COP(=O)(O)O)C3)ccc2C1 [compound 637]
2 | 10 to 100 nM | < 10 nM | > 625 nM | < 10 nM | CC(C)OCCC[C@H]1CCc2cc([C@@H]3CC[C@@](N)(COP(=O)(O)O)C3)ccc2C1 [compound 600]
3 | < 10 nM | < 10 nM | > 625 nM | < 10 nM | C/C=C\CCCC[C@@H]1CCc2cc([C@H]3CC[C@](N)(COP(=O)(O)O)C3)ccc2C1 [compound 661]
4 | < 10 nM | < 10 nM | > 625 nM | < 10 nM | COc1cc(CC[C@H]2CCc3cc([C@@H]4CC[C@@](N)(COP(=O)(O)O)C4)ccc3C2)ccc1F (single isomer, unassigned) [compound 608]
5 | 10 to 100 nM | < 10 nM | > 625 nM | < 10 nM | N[C@]1(COP(=O)(O)O)CC[C@H](c2ccc3c(c2)CC[C@@H](/C=C/C2CCOCC2)C3)C1 [compound 642]
6 | 100 to 1000 nM | 10 to 100 nM | > 625 nM | 100 to 1000 nM | Cc1cccc(/C=C/[C@@H]2CCc3cc([C@H]4CC[C@](N)(COP(=O)(O)O)C4)ccc3C2)c1 [compound 644]
7 | < 10 nM | < 10 nM | > 625 nM | < 10 nM | COCCCCC[C@@H]1CCc2cc(C3CCC(N)(COP(=O)(O)O)C3)ccc2C1 (single isomer, unassigned) [compound 599]
8 | < 10 nM | 10 to 100 nM | > 625 nM | < 10 nM | N[C@]1(COP(=O)(O)O)CC[C@H](c2ccc3c(c2)CC[C@H](c2ccccc2)C3)C1 [compound 569]
9 | < 10 nM | < 10 nM | > 625 nM | < 10 nM | COC(C)CCCCC1CCc2cc([C@H]3CC[C@](N)(COP(=O)(O)O)C3)ccc2C1 (single isomer, unassigned) [compound 611]
10 | < 10 nM | < 10 nM | > 625 nM | 10 to 100 nM | N[C@]1(COP(=O)(O)O)CC[C@H](c2ccc3c(c2)CC[C@H](Cc2ccccc2)C3)C1 [compound 572]
11 | 100 to 1000 nM | 10 to 100 nM | > 625 nM | 10 to 100 nM | COc1ccccc1/C=C/[C@@H]1CCc2cc([C@H]3CC[C@](N)(COP(=O)(O)O)C3)ccc2C1 [compound 641]
12 | 100 to 1000 nM | 100 to 1000 nM | > 625 nM | < 10 nM | CCCCCC(=O)NC1CCc2cc([C@H]3CC[C@@](N)(COP(=O)(O)O)C3)ccc2C1 (stereo partly drawn) [compound 629]
13 | 100 to 1000 nM | 100 to 1000 nM | > 625 nM | 100 to 1000 nM | COc1ccccc1CCC[C@@H]1CCc2cc([C@H]3CC[C@](N)(COP(=O)(O)O)C3)ccc2C1 [compound 563]
14 | 100 to 1000 nM | 100 to 1000 nM | > 625 nM | 10 to 100 nM | CN(C)CCCCC[C@@H]1CCc2cc([C@H]3CC[C@](N)(COP(=O)(O)O)C3)ccc2C1 [compound 561]

Further lines, the compound ahead of its results:

Row | SMILES | IC50 [1] | EC50 [2] | EC50 [3] | EC50 [4]
15 | COc1ccc(OC[C@@H]2CCc3cc([C@H]4CC[C@](N)(COP(=O)(O)O)C4)ccc3C2)cc1 [compound 476] | 10 to 100 nM | 10 to 100 nM | > 625 nM | 10 to 100 nM
16 | CC(C)Oc1ccc(C[C@@H]2CCc3cc([C@H]4CC[C@](N)(COP(=O)(O)O)C4)ccc3C2)cc1 [compound 559] | 100 to 1000 nM | 100 to 1000 nM | > 625 nM | 10 to 100 nM
17 | N[C@]1(COP(=O)(O)O)CC[C@H](c2ccc3c(c2)CC[C@@H](CCC2CCOCC2)C3)C1 [compound 558] | < 10 nM | < 10 nM | > 625 nM | < 10 nM
18 | CCCCCSC[C@H]1CCc2cc([C@H]3CC[C@](N)(COP(=O)(O)O)C3)ccc2C1 [compound 512] | < 10 nM | < 10 nM | > 625 nM | 10 to 100 nM
19 | N[C@]1(COP(=O)(O)O)CC[C@H](c2ccc3c(c2)CC[C@@H](CSCCc2ccncc2)C3)C1 [compound 525] | < 10 nM | 10 to 100 nM | > 625 nM | < 10 nM
20 | Cc1cccc(C)c1SC[C@@H]1CCc2cc([C@H]3CC[C@](N)(COP(=O)(O)O)C3)ccc2C1 [compound 523] | 10 to 100 nM | 100 to 1000 nM | > 625 nM | 10 to 100 nM
21 | CCCCOC[C@@H]1COc2cc([C@H]3CC[C@](N)(COP(=O)(O)O)C3)ccc2O1 [compound 414] | < 10 nM | 10 to 100 nM | > 625 nM | 1000 to 10000 nM
22 | N[C@]1(COP(=O)(O)O)CC[C@H](c2ccc3c(c2)CC[C@@H](COCCCC(F)(F)F)C3)C1 [compound 451] | < 10 nM | < 10 nM | > 625 nM | 10 to 100 nM
23 | CC(C)CSCC[C@@H]1CCc2cc([C@H]3CC[C@](N)(COP(=O)(O)O)C3)ccc2C1 [compound 538] | < 10 nM | < 10 nM | > 625 nM | < 10 nM
24 | COc1ccc(OC[C@@H]2CCc3cc([C@H]4CC[C@](N)(COP(=O)(O)O)C4)ccc3C2)c(F)c1F [compound 494] | 10 to 100 nM | 10 to 100 nM | > 625 nM | 10 to 100 nM
25 | CCC/C=C\CO[C@@H]1CCc2cc([C@H]3CC[C@](N)(COP(=O)(O)O)C3)ccc2C1 [compound 438] | < 10 nM | 10 to 100 nM | > 625 nM | < 10 nM
26 | CCCCCC[C@@H]1COc2cc([C@@H]3CC[C@](N)(COP(=O)(O)O)C3)ccc2C1 [compound 423] | 100 to 1000 nM | 100 to 1000 nM | > 625 nM | 10 to 100 nM
27 | C=CCCOC[C@@H]1CCc2cc([C@H]3CC[C@](N)(COP(=O)(O)O)C3)ccc2C1 [compound 452] | < 10 nM | < 10 nM | > 625 nM | < 10 nM
28 | CCCCCCN1CCc2cc([C@@H]3CC[C@](N)(COP(=O)(O)O)C3)ccc2C1=O [compound 417] | 10 to 100 nM | 100 to 1000 nM | > 625 nM | < 10 nM
29 | CCc1ccc(COC[C@@H]2CCc3cc([C@H]4CC[C@](N)(COP(=O)(O)O)C4)ccc3C2)s1 [compound 489] | < 10 nM | 10 to 100 nM | > 625 nM | < 10 nM
30 | COCc1cccc(OC[C@@H]2CCc3cc([C@H]4CC[C@](N)(COP(=O)(O)O)C4)ccc3C2)c1 [compound 480] | 1000 to 10000 nM | < 10 nM | > 625 nM | 100 to 1000 nM
31 | N[C@]1(COP(=O)(O)O)CC[C@H](c2ccc3c(c2)CC[C@@H](CSCCc2ccccn2)C3)C1 [compound 524] | 10 to 100 nM | < 10 nM | > 625 nM | < 10 nM
32 | N[C@]1(COP(=O)(O)O)CC[C@H](c2ccc3c(c2)CC[C@@H](COCc2ccc(C(F)(F)F)s2)C3)C1 [compound 499] | < 10 nM | 10 to 100 nM | > 625 nM | 10 to 100 nM
33 | CCCSC[C@@H]1CCc2cc([C@H]3CC[C@](N)(COP(=O)(O)O)C3)ccc2C1 [compound 503] | < 10 nM | < 10 nM | > 625 nM | < 10 nM
